What follows are compounds tested on S. Typhi PhoP-promoter GFP reporter, fluorescence, 4 h (assay: modified counter assay using GFP fluorescence, PhoP regulon inhibitor project, dose response (AID 1985)).

First: N/C(=N\OS(=O)(=O)c1ccc2ccccc2c1)c1cccnc1
Second: CC(=O)NC(c1cccc([N+](=O)[O-])c1)c1ccc2cccnc2c1O (centres undefined)
The IC50 of the first is 7-fold lower: 14.2 µM for the first, 98.9 µM for the second.

O=CN/N=C/c1c(O)ccc2ccccc12 and CN(C)c1ccc(Nc2nc(N)c3ccccc3n2)cc1 are within 1.5-fold of each other in IC50: 49 µM for the first, 62.4 µM for the second.

CCCCCCCCCCCCCCCC[n+]1cccc(C(=O)N(CC)CC)c1 and CCCCCC(CC(=O)NO)C(=O)NC(C(=O)N1CCCC1CO)C(C)C (centres undefined) are within 1.5-fold of each other in IC50: 20.1 µM for the first, 13.7 µM for the second.

Going from O[C@@H](c1cc(C(F)(F)F)nc2c(C(F)(F)F)cccc12)[C@H]1CCCCN1 to O=[N+]([O-])c1cc(CN2CCN(c3cccc(C(F)(F)F)c3)CC2)c2cccnc2c1O, the IC50 falls from 90.6 µM to 34.6 µM (2.6-fold). The second is the more potent here.

Compared with O=C(NC(=S)NNC(=O)c1ccccc1O)c1ccco1, Cc1ccc(C(=O)NNC(=S)NC(=O)c2ccccc2)cc1 is 2.6-fold higher in IC50: 23.8 µM for the first, 62.8 µM for the second. The first is the more potent here.

First: O=C(O)c1sccc1Oc1ccc(F)cc1[N+](=O)[O-]
Second: CC(=O)Oc1ccccc1C(=O)Nc1ncc([N+](=O)[O-])s1
The IC50 of the first is 12-fold lower: 12.6 µM for the first, 149 µM for the second. The first is the more potent here.

Going from C#CCOCCOCCOCCNc1nc(N2CCN(C(=O)[C@H](Cc3ccc(O)cc3)n3cc([C@@H](N)CC(C)C)nn3)CC2)nc(N2CCN(C(=O)[C@H](Cc3cc4ccccc4[nH]3)n3cc([C@@H](N)CC(C)C)nn3)CC2)n1 to C#CCOCCOCCOCCNc1nc(N2CCN(C(=O)[C@H](CCCCN)n3cc([C@@H](N)CC(C)C)nn3)CC2)nc(N2CCN(C(=O)[C@H](Cc3cc4ccccc4[nH]3)n3cc([C@@H](N)Cc4ccc(O)cc4)nn3)CC2)n1, the IC50 falls from 85.1 µM to 54.5 µM (1.6-fold).

CCn1cc(C(=O)O)c(=O)c2cc3c(cc21)OCO3 and CCC(C)NC(=O)c1cn(CC)c2cc(N3CCN(C)CC3)c(F)cc2c1=O (centres undefined) are within 1.5-fold of each other in IC50: 52.1 µM for the first, 38.4 µM for the second.

Compared with O=C(CSC1=NC(=O)C(c2ccccc2)C(=O)N1)Nc1cccc(Cl)c1 (centres undefined), O=S(=O)(Nc1ncccn1)c1ccc(NC(=S)Nc2cccc(Cl)c2)cc1 is 4.6-fold higher in IC50: 20.6 µM for the first, 95.3 µM for the second. The first is the more potent here.

First: Cc1cc(C)c(NC(=O)C[N+](C)(C)CC(O)COc2cccc3ccccc23)c(C)c1 (centres undefined)
Second: Cc1ccc(Nc2cc(C)c3c(O)cccc3n2)cc1C
The IC50 of the first is 2.5-fold higher: 75.9 µM for the first, 30.7 µM for the second.

Cc1cc(C)c2c(N)c3ccccc3nc2n1 and O=C(O)c1cc2c(cn1)[nH]c1ccccc12 are within 1.5-fold of each other in IC50: 86 µM for the first, 73 µM for the second.

CCOc1cccc(CNCCc2c(C)[nH]c3ccc(OC(F)(F)F)cc23)c1O and CN(C)CCCNc1c2ccccc2nc2ccccc12 are within 1.5-fold of each other in IC50: 76.2 µM for the first, 64.3 µM for the second.

Compared with CN(C)CCNc1oc(COc2ccc(-c3ccccc3)cc2)nc1C#N, O=C(C[n+]1cc(-c2ccccc2)n2c1CCC2)Nc1nc(-c2ccc(F)cc2)cs1 is 1.8-fold higher in IC50: 78.8 µM for the first, 141 µM for the second. The first is the more potent here.

CN(CC(=O)Nc1ccc(F)c(F)c1F)c1cnccn1 and CN(C)CC/C=C1\c2ccccc2Sc2ccc(Cl)cc21 are within 1.5-fold of each other in IC50: 108 µM for the first, 98.5 µM for the second.

Compared with Nc1nonc1C(=O)N/N=C/c1cc(Br)ccc1O, COc1ccc(N2CC(C(=O)N/N=C/c3cc([N+](=O)[O-])ccc3O)CC2=O)cc1 (centres undefined) is 6.4-fold higher in IC50: 12.7 µM for the first, 81.2 µM for the second. The first is the more potent here.

First: Cc1cc(C(C)(C)CC(C)(C)C)ccc1OCCOCC[N+](C)(C)Cc1ccccc1
Second: Cc1ccc(C(=O)NCCN2C3=NC[C@@H](Cc4ccccc4)N3C[C@H]2Cc2ccc(O)cc2)cc1Br
The IC50 of the first is 3.8-fold lower: 31.6 µM for the first, 121 µM for the second.

CC(C)C1N=C(c2ccc3c(c2)OCO3)CC(c2ccccc2O)N1 (centres undefined) and Clc1ccc(CN2C3=NCCN3c3ccccc32)cc1 are within 1.5-fold of each other in IC50: 121 µM for the first, 89.4 µM for the second.

COc1ccc2c(C(=O)CCl)c[nH]c2c1 and O=c1[nH]cc(N=Cc2cc([N+](=O)[O-])ccc2O)c(=O)[nH]1 are within 1.5-fold of each other in IC50: 36.3 µM for the first, 39.7 µM for the second.

Going from O=C1OCCN1/N=C/c1ccc([N+](=O)[O-])o1 to O=Cc1c(Cl)nc2ccccn2c1=O, the IC50 rises from 13.4 µM to 132 µM (9.9-fold).

First: Fc1ccc(Nc2nc(NCc3ccco3)c3ccccc3n2)cc1
Second: CN1CCN(C2Cc3cc(F)ccc3Sc3ccc(Cl)cc32)CC1 (centres undefined)
The IC50 of the first is 4.9-fold lower: 15.1 µM for the first, 74.4 µM for the second.

Going from Cc1cc(C)n(-c2nc(NCCN(C)C)c3c4c(sc3n2)CCCC4)n1 to Cc1cc(C2CCCCC2)n(O)c(=O)c1, the IC50 falls from 99.4 µM to 20.9 µM (4.8-fold). The second is the more potent here.

Compared with C[C@H]1c2cccc(O)c2C(O)=C2C(=O)[C@]3(O)C(O)=C(C(N)=O)C(=O)[C@@H](N(C)C)[C@@H]3[C@@H](O)[C@@H]21, CO[C@H]1C=CO[C@@]2(C)Oc3c(C)c(O)c4c(O)c(c(C=NN5CCN(C)CC5)c(O)c4c3C2=O)NC(=O)C(C)=CC=C[C@H](C)[C@H](O)[C@@H](C)[C@@H](O)[C@@H](C)[C@H](OC(C)=O)[C@@H]1C is 12-fold higher in IC50: 1.97 µM for the first, 23.8 µM for the second. The first is the more potent here.

Source: PubChem BioAssay AID1985 (Southern Research Specialized Biocontainment Screening …, 2009)
